Laboratory results published in ChEMBL document CHEMBL6074668 (J Med Chem, 2024).
Active and inactive are the calls of the source. The rule behind the calls is not given here.

What was measured:
[1] = Binding affinity to Sigma2 opioid receptor (unknown origin) by radioligand displacement assay; set-up: species or system Homo sapiens
[2] = target: T1, 5-hydroxytryptamine receptor 3A (Homo sapiens, UniProt P46098); assay: Binding affinity to 5HT3 receptor (unknown origin) by radioligand displacement assay
T1 sequence (P46098 whole entry): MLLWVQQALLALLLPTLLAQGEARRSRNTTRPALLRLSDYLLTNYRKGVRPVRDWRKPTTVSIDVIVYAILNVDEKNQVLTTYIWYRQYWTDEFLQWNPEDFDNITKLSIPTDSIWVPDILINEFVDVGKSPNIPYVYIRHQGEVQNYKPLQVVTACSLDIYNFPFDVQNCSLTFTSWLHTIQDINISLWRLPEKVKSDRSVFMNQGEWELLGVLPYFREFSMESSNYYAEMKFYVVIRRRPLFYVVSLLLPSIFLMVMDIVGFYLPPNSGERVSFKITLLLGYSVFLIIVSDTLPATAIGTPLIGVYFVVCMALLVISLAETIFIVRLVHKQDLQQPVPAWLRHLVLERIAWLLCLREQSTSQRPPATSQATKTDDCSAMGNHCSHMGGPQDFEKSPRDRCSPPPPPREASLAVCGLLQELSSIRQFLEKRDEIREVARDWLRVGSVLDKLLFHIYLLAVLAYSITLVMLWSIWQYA

[3] = target: Atypical chemokine receptor 3 (Homo sapiens) (UniProt P25106); assay: Agonist activity at CXCR7 receptor (unknown origin) assessed as beta arrestin2 recruitment at >=3 uM by PRESTO-Tango assay; type: functional; details: filed as agonist
[4] = target: Kappa-type opioid receptor (Homo sapiens, UniProt P41145); assay: Binding affinity to kappa opioid receptor (unknown origin) by radioligand displacement assay
[5] = Binding affinity to alpha7 […] receptor (unknown origin) by radioligand displacement assay; set-up: species or system Homo sapiens
[6] = target: T2, Alpha-1D adrenergic receptor (Homo sapiens, UniProt P25100); assay: Binding affinity to alpha1D adrenergic receptor (unknown origin) by radioligand displacement assay
T2 sequence (P25100 whole entry): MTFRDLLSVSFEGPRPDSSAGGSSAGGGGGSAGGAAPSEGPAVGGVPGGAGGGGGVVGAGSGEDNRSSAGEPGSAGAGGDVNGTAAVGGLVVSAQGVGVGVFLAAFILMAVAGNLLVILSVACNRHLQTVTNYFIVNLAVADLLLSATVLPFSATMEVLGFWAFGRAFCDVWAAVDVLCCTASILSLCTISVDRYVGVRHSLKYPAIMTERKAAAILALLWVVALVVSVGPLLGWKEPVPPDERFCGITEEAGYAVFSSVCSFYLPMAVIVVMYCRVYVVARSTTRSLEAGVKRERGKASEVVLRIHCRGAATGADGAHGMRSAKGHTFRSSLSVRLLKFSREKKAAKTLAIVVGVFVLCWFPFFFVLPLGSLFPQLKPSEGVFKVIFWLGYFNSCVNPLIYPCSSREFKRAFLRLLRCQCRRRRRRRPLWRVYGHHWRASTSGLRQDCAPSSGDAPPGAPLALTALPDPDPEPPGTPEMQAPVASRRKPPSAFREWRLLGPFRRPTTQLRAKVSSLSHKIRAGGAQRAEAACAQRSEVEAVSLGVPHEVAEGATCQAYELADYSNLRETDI

[7] = target: 5-hydroxytryptamine receptor 5A (Homo sapiens, UniProt P47898); assay: Binding affinity to 5HT5A receptor (unknown origin) by radioligand displacement assay
[8] = target: 5-hydroxytryptamine receptor 2B (Homo sapiens, UniProt P41595); assay: Binding affinity to 5HT2B receptor (unknown origin) by radioligand displacement assay
Mu-type opioid receptor [9] = target: T3, Mu-type opioid receptor (Homo sapiens, UniProt P35372); assay: Displacement of [3H]DAMGO from mu opioid receptor (unknown origin) expressed in CHO cell membrane by competitive radioligand binding assay; type: cell membranes
[10] = target: T4, Alpha-2C adrenergic receptor (Homo sapiens, UniProt P18825); assay: Binding affinity to alpha2C adrenergic receptor (unknown origin) by radioligand displacement assay
T4 sequence (P18825 whole entry): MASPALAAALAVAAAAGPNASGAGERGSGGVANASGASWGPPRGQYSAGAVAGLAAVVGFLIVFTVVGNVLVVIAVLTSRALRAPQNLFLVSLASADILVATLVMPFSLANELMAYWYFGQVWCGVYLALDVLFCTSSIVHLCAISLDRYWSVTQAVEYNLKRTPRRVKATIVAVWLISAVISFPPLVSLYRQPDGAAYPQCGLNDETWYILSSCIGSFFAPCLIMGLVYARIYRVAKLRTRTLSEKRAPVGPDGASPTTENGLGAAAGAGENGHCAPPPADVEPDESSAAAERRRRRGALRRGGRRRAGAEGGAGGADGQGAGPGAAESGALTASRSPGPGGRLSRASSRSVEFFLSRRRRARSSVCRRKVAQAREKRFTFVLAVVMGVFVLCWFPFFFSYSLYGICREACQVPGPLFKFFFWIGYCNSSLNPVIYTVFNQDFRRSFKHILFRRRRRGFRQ

[11] = target: T5, Alpha-1A adrenergic receptor (Homo sapiens, UniProt P35348); assay: Binding affinity to alpha1A adrenergic receptor (unknown origin) by radioligand displacement assay
T5 sequence (P35348 whole entry): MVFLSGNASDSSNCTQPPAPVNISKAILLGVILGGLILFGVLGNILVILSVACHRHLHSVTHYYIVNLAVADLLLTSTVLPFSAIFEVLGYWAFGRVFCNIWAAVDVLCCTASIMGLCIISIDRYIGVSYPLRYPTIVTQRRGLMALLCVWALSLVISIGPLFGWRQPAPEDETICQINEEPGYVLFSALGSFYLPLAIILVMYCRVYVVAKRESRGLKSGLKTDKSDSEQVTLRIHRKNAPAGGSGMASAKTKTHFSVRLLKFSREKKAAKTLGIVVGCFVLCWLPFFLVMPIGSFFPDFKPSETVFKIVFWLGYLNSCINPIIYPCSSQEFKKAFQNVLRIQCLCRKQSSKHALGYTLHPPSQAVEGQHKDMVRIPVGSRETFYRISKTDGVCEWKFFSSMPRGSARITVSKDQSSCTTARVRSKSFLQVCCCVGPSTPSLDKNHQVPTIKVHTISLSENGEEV

[12] = target: 5-hydroxytryptamine receptor 7 (Homo sapiens, UniProt P34969); assay: Binding affinity to 5HT7A receptor (unknown origin) by radioligand displacement assay
[13] = target: 5-hydroxytryptamine receptor 2A (Homo sapiens, UniProt P28223)
Description: Binding affinity to 5HT2A receptor (unknown origin) by radioligand displacement assay

Mu-type opioid receptor [14] = target: T3, Mu-type opioid receptor; assay: Agonist activity at human mu opioid receptor expressed in CHO-K1 cells assessed as inhibition of forskolin-stimulated cAMP accumulation by HitHunter assay based luminescence analysis; type: functional, cell-based

T3 sequence (P35372 whole entry): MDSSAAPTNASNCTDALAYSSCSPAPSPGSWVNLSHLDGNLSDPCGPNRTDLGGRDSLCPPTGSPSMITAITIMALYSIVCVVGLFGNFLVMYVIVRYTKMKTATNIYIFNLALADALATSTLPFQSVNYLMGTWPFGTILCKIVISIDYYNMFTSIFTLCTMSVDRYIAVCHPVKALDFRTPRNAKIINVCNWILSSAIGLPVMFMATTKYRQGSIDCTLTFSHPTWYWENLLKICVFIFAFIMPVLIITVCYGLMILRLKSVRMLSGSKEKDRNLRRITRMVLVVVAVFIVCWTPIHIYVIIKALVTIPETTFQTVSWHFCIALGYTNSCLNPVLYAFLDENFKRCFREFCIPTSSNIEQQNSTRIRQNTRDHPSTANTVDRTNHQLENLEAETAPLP
Sequence of Atypical chemokine receptor 3 (Homo sapiens) (P25106 whole entry): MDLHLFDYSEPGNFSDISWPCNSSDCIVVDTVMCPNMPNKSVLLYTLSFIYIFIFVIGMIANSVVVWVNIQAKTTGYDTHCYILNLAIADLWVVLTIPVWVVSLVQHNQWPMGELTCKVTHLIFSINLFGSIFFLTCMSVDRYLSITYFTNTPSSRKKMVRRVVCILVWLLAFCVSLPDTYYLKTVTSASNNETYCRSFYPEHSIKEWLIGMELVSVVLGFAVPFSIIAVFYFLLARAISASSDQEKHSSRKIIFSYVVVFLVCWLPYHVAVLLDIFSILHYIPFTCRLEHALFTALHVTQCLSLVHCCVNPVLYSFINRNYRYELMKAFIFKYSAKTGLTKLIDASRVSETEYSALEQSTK
Sequence of Kappa-type opioid receptor (P41145 whole entry): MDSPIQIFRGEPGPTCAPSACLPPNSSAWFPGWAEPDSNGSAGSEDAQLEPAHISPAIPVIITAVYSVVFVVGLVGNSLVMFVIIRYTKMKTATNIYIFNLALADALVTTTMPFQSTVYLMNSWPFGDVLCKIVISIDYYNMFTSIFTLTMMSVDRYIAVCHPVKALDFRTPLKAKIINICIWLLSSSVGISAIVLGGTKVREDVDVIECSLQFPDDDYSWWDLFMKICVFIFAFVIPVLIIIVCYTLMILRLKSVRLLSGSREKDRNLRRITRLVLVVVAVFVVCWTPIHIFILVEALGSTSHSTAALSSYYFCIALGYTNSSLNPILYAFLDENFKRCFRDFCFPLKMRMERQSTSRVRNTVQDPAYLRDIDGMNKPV
Sequence of 5-hydroxytryptamine receptor 2A (P28223 whole entry): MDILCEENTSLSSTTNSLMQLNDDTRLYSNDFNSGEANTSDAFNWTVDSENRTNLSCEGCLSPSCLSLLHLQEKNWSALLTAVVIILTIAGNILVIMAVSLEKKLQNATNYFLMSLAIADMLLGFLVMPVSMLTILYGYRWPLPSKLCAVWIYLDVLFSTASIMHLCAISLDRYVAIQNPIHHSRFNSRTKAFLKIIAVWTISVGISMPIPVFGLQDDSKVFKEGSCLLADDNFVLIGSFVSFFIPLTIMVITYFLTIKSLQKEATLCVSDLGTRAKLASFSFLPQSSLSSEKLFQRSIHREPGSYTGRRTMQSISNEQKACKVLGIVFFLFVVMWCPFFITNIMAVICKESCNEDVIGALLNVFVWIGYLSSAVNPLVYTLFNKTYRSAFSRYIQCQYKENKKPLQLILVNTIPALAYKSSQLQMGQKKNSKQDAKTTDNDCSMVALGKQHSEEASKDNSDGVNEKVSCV
Sequence of 5-hydroxytryptamine receptor 5A (P47898 whole entry): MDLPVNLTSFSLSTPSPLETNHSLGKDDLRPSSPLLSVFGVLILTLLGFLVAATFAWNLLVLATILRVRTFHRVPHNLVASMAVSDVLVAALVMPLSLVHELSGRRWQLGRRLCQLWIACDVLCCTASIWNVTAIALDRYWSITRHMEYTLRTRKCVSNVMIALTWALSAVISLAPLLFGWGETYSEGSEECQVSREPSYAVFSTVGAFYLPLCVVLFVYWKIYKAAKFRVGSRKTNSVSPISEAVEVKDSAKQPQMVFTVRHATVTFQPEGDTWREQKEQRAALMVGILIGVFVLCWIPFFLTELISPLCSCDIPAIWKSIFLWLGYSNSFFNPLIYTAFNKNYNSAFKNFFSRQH
Sequence of 5-hydroxytryptamine receptor 2B (P41595 whole entry): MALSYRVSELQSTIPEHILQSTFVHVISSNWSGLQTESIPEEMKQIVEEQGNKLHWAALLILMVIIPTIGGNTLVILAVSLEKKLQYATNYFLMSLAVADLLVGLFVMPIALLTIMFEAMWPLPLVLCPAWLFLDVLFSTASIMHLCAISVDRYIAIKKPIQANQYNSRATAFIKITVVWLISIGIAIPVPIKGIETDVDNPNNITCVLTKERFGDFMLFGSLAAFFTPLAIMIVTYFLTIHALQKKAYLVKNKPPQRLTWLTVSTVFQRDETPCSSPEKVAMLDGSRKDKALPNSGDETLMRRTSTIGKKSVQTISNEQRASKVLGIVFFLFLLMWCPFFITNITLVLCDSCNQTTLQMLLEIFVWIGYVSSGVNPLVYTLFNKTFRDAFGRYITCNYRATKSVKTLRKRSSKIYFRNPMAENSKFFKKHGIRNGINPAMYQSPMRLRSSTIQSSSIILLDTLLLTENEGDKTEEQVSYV
Sequence of 5-hydroxytryptamine receptor 7 (P34969 whole entry): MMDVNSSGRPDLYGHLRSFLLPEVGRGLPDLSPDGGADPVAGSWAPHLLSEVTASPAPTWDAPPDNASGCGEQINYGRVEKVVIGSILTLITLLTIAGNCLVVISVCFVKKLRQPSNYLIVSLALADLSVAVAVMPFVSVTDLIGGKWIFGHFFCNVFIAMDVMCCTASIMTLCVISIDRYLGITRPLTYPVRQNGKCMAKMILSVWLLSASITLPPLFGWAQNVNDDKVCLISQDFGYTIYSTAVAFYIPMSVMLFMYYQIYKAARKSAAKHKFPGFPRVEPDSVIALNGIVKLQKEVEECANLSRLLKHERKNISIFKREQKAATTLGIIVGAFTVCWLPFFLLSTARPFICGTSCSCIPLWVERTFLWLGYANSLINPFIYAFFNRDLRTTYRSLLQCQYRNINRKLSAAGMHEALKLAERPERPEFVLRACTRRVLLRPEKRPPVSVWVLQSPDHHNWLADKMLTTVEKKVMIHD

For `C/C=C1/CN2CC[C@]34C(=C(C(=O)OC)[C@H]1C[C@H]23)Nc1ccc(I)cc14`, the Ki [1] was 2220 nM, the Ki [2] was 384 nM and the Activity [3] was “Active; Weak Activity Compared To Vuf11207”. It also gave a Ki [4] of 1 nM, a Ki [5] of 5490 nM and a Ki [6] of 1140 nM. The Ki [7] was 829 nM, the Ki [8] was 767 nM and the Ki (Mu-type opioid receptor [9]) was 3600 nM. It also gave a Ki [10] of 2860 nM, a Ki [11] of 883 nM and a Ki [12] of 1380 nM. It also gave a Ki [13] of 2310 nM and an EC50 (Mu-type opioid receptor [14]) of 41000 nM.
